From publication PMC10266688 (PLOS ONE, 2023)
Several values for one entry are separate records, joined by “and”; a condition that tells them apart may be missing. Equal values may be shown once. Read-outs that look alike come from different tables or passages of the source.

Assay: Single administration dose escalation study (MTD, body weight, clinical observations), female CD1 mice
Type: in vivo
Settings: for Body weight change, Mean / Body weight change: day 7 vs initial weight; for Body weight change, Mean: group mean; for MTD at 7 days: mouse, in vivo, female CD1 mice
Procedure: Mice were dosed on day 1 and clinical condition recorded at 0.5 h, 2 h, 4 h, 6 h, and days 1–7 (S6 Table).
Gc - general condition observation
X - treatment with compound or vehicle

With `N#Cc1ccc(/C=C2/C(=O)/C(=C/c3ccc(C#N)cc3)C23CCNCC3)cc1` [Up284] as the molecule, how does the Body weight (IV 60 mg/kg single dose, day 2, individual mice, 60 mg/kg) read?
Its Body weight is 27.1 g and 23.4 g and 23.8 g.

And the “Body weight, Mean” value (IV 60 mg/kg single dose, day 3, group mean)?
The value was 24.73 g.

And the Body weight (IV 60 mg/kg single dose, day 3, individual mice, 60 mg/kg)?
The Body weight was 26.5 g and 23.7 g and 24.0 g.

And the “Body weight, Mean” value (IV 60 mg/kg single dose, day 4, group mean)?
The value was 24.93 g.

What about the Body weight (IV 60 mg/kg single dose, day 4, individual mice, 60 mg/kg) of the same molecule?
The Body weight was 26.6 g and 23.5 g and 24.7 g.

What about the “Body weight, Mean” value (IV 60 mg/kg single dose, day 5, group mean) of the same molecule?
The value was 24.83 g.

And the Body weight (IV 60 mg/kg single dose, day 5, individual mice, 60 mg/kg)?
Its Body weight is 26.5 g and 23.3 g and 24.7 g.

And the “Body weight, Mean” value (IV 60 mg/kg single dose, day 6, group mean)?
Its value is 25.30 g.

And the Body weight (IV 60 mg/kg single dose, day 6, individual mice, 60 mg/kg)?
The Body weight was 26.7 g and 24.1 g and 25.1 g.

And the “Body weight, Mean” value (IV 60 mg/kg single dose, day 7, group mean)?
Its value is 25.27 g.

What about the Body weight (IV 60 mg/kg single dose, day 7, individual mice, 60 mg/kg) of the same molecule?
Its Body weight is 26.6 g and 23.9 g and 25.3 g.

And the “Body weight change, Mean” value (IV 60 mg/kg single dose)?
The value was 3.48%.

And the Body weight change (IV 60 mg/kg single dose, individual mice, 60 mg/kg)?
The Body weight change was 2.31% and 5.29% and 2.85%.

What about the Clinical observation (IV 60 mg/kg, day 0, 0.5 h, individual mice, 60 mg/kg) of the same molecule?
The Clinical observation was 0.

What about the Clinical observation (IV 60 mg/kg, day 0, 2 h, individual mice) of the same molecule?
Its Clinical observation is 0.

And the Clinical observation (IV 60 mg/kg, day 0, 4 h, individual mice)?
The Clinical observation was 0.

What about the Clinical observation (IV 60 mg/kg, day 0, 6 h, individual mice) of the same molecule?
Its Clinical observation is 0.

What about the Clinical observation (IV 60 mg/kg, day 0, time 0, individual mice) of the same molecule?
The Clinical observation was 0.

What about the Clinical observation (IV 60 mg/kg, day 1, individual mice) of the same molecule?
Its Clinical observation is 0.

What about the Clinical observation (IV 60 mg/kg, day 2, individual mice) of the same molecule?
Its Clinical observation is 0.

And the Clinical observation (IV 60 mg/kg, day 3, individual mice)?
Its Clinical observation is 0.

And the Clinical observation (IV 60 mg/kg, day 4, individual mice)?
Its Clinical observation is 0.

And the Clinical observation (IV 60 mg/kg, day 5, individual mice)?
The Clinical observation was 0.

And the Clinical observation (IV 60 mg/kg, day 6, individual mice)?
Its Clinical observation is 0.

And the Clinical observation (IV 60 mg/kg, day 7, individual mice)?
The Clinical observation was 0.

What about the “Body weight, Mean” value (PO 100 mg/kg single dose, day 0, group mean) of the same molecule?
Its value is 24.70 g.

What about the Body weight (PO 100 mg/kg single dose, day 0, individual mice, 100 mg/kg) of the same molecule?
The Body weight was 27.5 g and 24.7 g and 21.9 g.

What about the “Body weight, Mean” value (PO 100 mg/kg single dose, day 1, group mean) of the same molecule?
The value was 24.30 g.

And the Body weight (PO 100 mg/kg single dose, day 1, individual mice, 100 mg/kg)?
The Body weight was 26.4 g and 24.4 g and 22.1 g.

What about the “Body weight, Mean” value (PO 100 mg/kg single dose, day 2, group mean) of the same molecule?
The value was 24.77 g.

What about the Body weight (PO 100 mg/kg single dose, day 2, individual mice, 100 mg/kg) of the same molecule?
The Body weight was 27.0 g and 24.5 g and 22.8 g.

What about the “Body weight, Mean” value (PO 100 mg/kg single dose, day 3, group mean) of the same molecule?
The value was 25.10 g.

And the Body weight (PO 100 mg/kg single dose, day 3, individual mice, 100 mg/kg)?
Its Body weight is 27.2 g and 25.0 g and 23.1 g.

What about the “Body weight, Mean” value (PO 100 mg/kg single dose, day 4, group mean) of the same molecule?
Its value is 25.30 g.

What about the Body weight (PO 100 mg/kg single dose, day 4, individual mice, 100 mg/kg) of the same molecule?
The Body weight was 27.9 g and 24.5 g and 23.5 g.

What about the “Body weight, Mean” value (PO 100 mg/kg single dose, day 5, group mean) of the same molecule?
Its value is 24.77 g.

And the Body weight (PO 100 mg/kg single dose, day 5, individual mice, 100 mg/kg)?
Its Body weight is 26.9 g and 24.4 g and 23.0 g.

What about the “Body weight, Mean” value (PO 100 mg/kg single dose, day 6, group mean) of the same molecule?
Its value is 25.50 g.

And the Body weight (PO 100 mg/kg single dose, day 6, individual mice, 100 mg/kg)?
Its Body weight is 28.4 g and 25.0 g and 23.1 g.

What about the “Body weight, Mean” value (PO 100 mg/kg single dose, day 7, group mean) of the same molecule?
The value was 26.10 g.

And the Body weight (PO 100 mg/kg single dose, day 7, individual mice, 100 mg/kg)?
Its Body weight is 29.3 g and 25.6 g and 23.4 g.

What about the “Body weight change, Mean” value (PO 100 mg/kg single dose) of the same molecule?
The value was 5.68%.

And the Body weight change (PO 100 mg/kg single dose, individual mice, 100 mg/kg)?
The Body weight change was 6.55% and 3.64%.

And the Clinical observation (PO 100 mg/kg, day 0, 0.5 h, individual mice)?
Its Clinical observation is 0.

What about the Clinical observation (PO 100 mg/kg, day 0, 2 h, individual mice) of the same molecule?
The Clinical observation was 0.

And the Clinical observation (PO 100 mg/kg, day 0, 4 h, individual mice)?
The Clinical observation was 0.

What about the Clinical observation (PO 100 mg/kg, day 0, 6 h, individual mice) of the same molecule?
The Clinical observation was 0.

What about the Clinical observation (PO 100 mg/kg, day 0, time 0, individual mice) of the same molecule?
The Clinical observation was 0.

What about the Clinical observation (PO 100 mg/kg, day 1, individual mice) of the same molecule?
The Clinical observation was 0.

And the Clinical observation (PO 100 mg/kg, day 2, individual mice)?
Its Clinical observation is 0.

What about the Clinical observation (PO 100 mg/kg, day 3, individual mice) of the same molecule?
Its Clinical observation is 0.

And the Clinical observation (PO 100 mg/kg, day 4, individual mice)?
Its Clinical observation is 0.

What about the Clinical observation (PO 100 mg/kg, day 5, individual mice) of the same molecule?
The Clinical observation was 0.

What about the Clinical observation (PO 100 mg/kg, day 6, individual mice) of the same molecule?
Its Clinical observation is 0.

What about the Clinical observation (PO 100 mg/kg, day 7, individual mice) of the same molecule?
Its Clinical observation is 0.

And the “Body weight, Mean” value (PO 200 mg/kg single dose, day 0, group mean)?
The value was 24.70 g.

And the “Body weight, Mean” value (PO 200 mg/kg single dose, day 1, group mean)?
Its value is 24.90 g.

And the “Body weight, Mean” value (PO 200 mg/kg single dose, day 2, group mean)?
Its value is 25.17 g.

What about the “Body weight, Mean” value (PO 200 mg/kg single dose, day 3, group mean) of the same molecule?
Its value is 25.07 g.

And the “Body weight, Mean” value (PO 200 mg/kg single dose, day 4, group mean)?
Its value is 25.40 g.

And the “Body weight, Mean” value (PO 200 mg/kg single dose, day 5, group mean)?
Its value is 25.33 g.

What about the “Body weight, Mean” value (PO 200 mg/kg single dose, day 6, group mean) of the same molecule?
Its value is 25.63 g.

And the “Body weight, Mean” value (PO 200 mg/kg single dose, day 7, group mean)?
Its value is 25.87 g.

What about the Body weight (PO 200 mg/kg single dose, day 7, individual mice, 200 mg/kg) of the same molecule?
Its Body weight is 26.3 g.

What about the “Body weight change, Mean” value (PO 200 mg/kg single dose) of the same molecule?
The value was 4.87%.

And the Body weight change (PO 200 mg/kg single dose, individual mice, 200 mg/kg)?
Its Body weight change is 8.68% and 0.00% and 5.93%.

What about the Clinical observation (PO 200 mg/kg, day 0, 0.5 h, individual mice) of the same molecule?
Its Clinical observation is 0.

And the Clinical observation (PO 200 mg/kg, day 0, 2 h, individual mice)?
Its Clinical observation is 0.

What about the Clinical observation (PO 200 mg/kg, day 0, 4 h, individual mice) of the same molecule?
The Clinical observation was 0.

What about the Clinical observation (PO 200 mg/kg, day 0, 6 h, individual mice) of the same molecule?
The Clinical observation was 0.

What about the Clinical observation (PO 200 mg/kg, day 0, time 0, individual mice) of the same molecule?
Its Clinical observation is 0.

What about the Clinical observation (PO 200 mg/kg, day 1, individual mice) of the same molecule?
The Clinical observation was 0.

And the Clinical observation (PO 200 mg/kg, day 2, individual mice)?
The Clinical observation was 0.

And the Clinical observation (PO 200 mg/kg, day 3, individual mice)?
The Clinical observation was 0.

What about the Clinical observation (PO 200 mg/kg, day 4, individual mice) of the same molecule?
Its Clinical observation is 0.

What about the Clinical observation (PO 200 mg/kg, day 5, individual mice) of the same molecule?
Its Clinical observation is 0.

What about the Clinical observation (PO 200 mg/kg, day 6, individual mice) of the same molecule?
Its Clinical observation is 0.

And the Clinical observation (PO 200 mg/kg, day 7, individual mice)?
The Clinical observation was 0.

What about the MTD at 7 days (ip, read-out: MTD, single IP dose) of the same molecule?
The MTD at 7 days was 40 mg/kg.

What about the MTD at 7 days (iv, read-out: MTD, single IV dose (not reached at maximum feasible dose)) of the same molecule?
The MTD at 7 days was no less than 60 mg/kg.

What about the MTD at 7 days (po, read-out: MTD, single PO dose (not reached at maximum feasible dose)) of the same molecule?
Its MTD at 7 days is no less than 200 mg/kg.
